From patent US7741350B1 (Cara Therapeutics, Inc., priority 2009, dated 2010)
Read-outs that look alike come from different tables or passages of the source.

Assays:
[1] = target: human CB2 receptor (hCB2) (Homo sapiens, UniProt P34972); experiment: cAMP assay at human CB2 receptor; assay type: cell-based; conditions: hCB2R, maximum measurable range 30 μM
Description: (§1) TR-FRET was measured using a 330-380 nm excitation filter, 615 nm and 665 nm emission filters, dichroic minor 380 nm and Z=10 mm. cAMP concentrations in each well were back-calculated from a cAMP standard curve run concurrently during each assay. Each plate contained 16 wells of forskolin stimulated cells and 16 wells of forskolin plus 1 μM CP55,940-treated cells. Concentrations of cAMP were expressed as a percent of the difference of these two groups of wells.

[2] = target: human CB1 receptor (hCB1) (Homo sapiens, UniProt P21554); experiment: cAMP assay at human CB1 receptor; assay type: cell-based; conditions: hCB1R; maximum measurable range 30 μM; read-out: EC50 (Potency at Human CB1 determined by cAMP Assay)
Chain of human CB1 receptor (hCB1) (P21554 whole entry): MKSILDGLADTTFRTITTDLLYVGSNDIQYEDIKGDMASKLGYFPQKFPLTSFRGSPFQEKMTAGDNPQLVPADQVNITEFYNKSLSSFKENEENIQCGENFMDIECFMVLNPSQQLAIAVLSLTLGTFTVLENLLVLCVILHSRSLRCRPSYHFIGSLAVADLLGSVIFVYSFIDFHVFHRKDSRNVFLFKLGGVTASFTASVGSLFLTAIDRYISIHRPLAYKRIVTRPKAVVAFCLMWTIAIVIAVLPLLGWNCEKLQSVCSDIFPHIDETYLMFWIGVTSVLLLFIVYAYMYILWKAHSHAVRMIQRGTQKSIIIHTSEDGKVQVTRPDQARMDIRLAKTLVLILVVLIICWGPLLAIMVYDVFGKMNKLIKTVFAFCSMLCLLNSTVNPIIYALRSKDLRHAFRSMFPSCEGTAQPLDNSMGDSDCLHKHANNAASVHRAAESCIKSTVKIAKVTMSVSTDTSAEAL
Description: The ability of each of the compounds to act as agonists or inverse agonists at human CB2 and CB1 receptors (hCB2, hCB1, respectively) and at the rat CB2 receptor (rCB2) was determined by measuring changes in intracellular cyclic AMP (cAMP) levels as described in U.S. Pat. No. 7,517,874.
as §1, with “wells. Concentration-response data including EC50 (the concentration of compound producing 50% of the maximal response) and intrinsic activity (the percent maximal activation compared to full activation by CP55, 940) were determined using a four-parameter non-linear regression algorithm (CambridgeSoft Bioassay).” for “wells.”

[3] = EC50 (Potency at Human CB2 determined by cAMP Assay)
[4] = read-out: EC50 (Potency at Human CB2 determined by cAMP Assay)

Chain of human CB2 receptor (hCB2) (P34972 whole entry): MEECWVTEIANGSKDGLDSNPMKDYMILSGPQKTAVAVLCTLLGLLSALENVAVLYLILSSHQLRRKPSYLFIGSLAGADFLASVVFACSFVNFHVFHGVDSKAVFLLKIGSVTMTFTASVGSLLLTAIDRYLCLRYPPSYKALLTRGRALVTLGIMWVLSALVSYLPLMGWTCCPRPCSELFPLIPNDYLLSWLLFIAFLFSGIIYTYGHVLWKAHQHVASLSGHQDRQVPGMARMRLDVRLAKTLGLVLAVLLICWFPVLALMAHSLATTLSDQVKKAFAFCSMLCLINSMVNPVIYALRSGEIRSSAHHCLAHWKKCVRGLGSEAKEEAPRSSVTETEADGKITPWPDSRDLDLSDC

Structure (SMILES): CNC(=O)[C@@H](NC(=O)n1nc(-c2ccc(F)c(F)c2)c2c1CCCC2)C(C)(C)C [Compound 29, (S)-3-(3,4-difluorophenyl)-N-(3,3-dimethyl-1-(methylamino)-1-oxobutan-2-yl)-4,5,6,7-tetrahydro-1H-indazole-1-carboxamide]
- EC50 [1, 3]: < 1 µM
- EC50 [2]: < 1 µM

Structure (SMILES): CC(C)(C)c1csc(NC(=O)n2nc(-c3ccc(F)c(F)c3)c3c2CCOC3)n1 [Compound 56, N-(4-tert-butylthiazol-2-yl)-3-(3,4-difluorophenyl)-6,7-dihydropyrano[4,3-c]pyrazole-1(4H)-carboxamide]
- EC50 [1, 4]: < 1 µM
- EC50 [2]: < 1 µM

Structure (SMILES): CN1CCc2c(c(-c3cc(F)c(F)cc3F)nn2C(=O)N[C@H](C(=O)NCCC(N)=O)C(C)(C)C)C1 [Compound 73, (S)—N-(1-(3-amino-3-oxopropylamino)-3,3-dimethyl-1-oxobutan-2-yl)-5-methyl-3-(2,4,5-trifluorophenyl)-4,5,6,7-tetrahydro-1H-pyrazolo[4,3-c]pyridine-1-carboxamide]
- EC50 [1, 4]: > 1 µM
- EC50 [2]: < 1 µM

Structure (SMILES): CNC(=O)[C@@H](NC(=O)n1nc(-c2cc(F)c(F)cc2F)c2c1CCOC2)C(C)(C)C [Compound 30, (S)—N-(3,3-dimethyl-1-(methylamino)-1-oxobutan-2-yl)-3-(2,4,5-trifluorophenyl)-6,7-dihydropyrano[4,3-c]pyrazole-1(4H)-carboxamide]
- EC50 [1, 3]: < 1 µM
- EC50 [2]: < 1 µM

Structure (SMILES): CCOC(=O)N1CCN(C(=O)[C@@H](NC(=O)n2nc(-c3cc(F)c(F)cc3F)c3c2CCN(C)C3)C(C)(C)C)CC1 [Compound 77, (S)-ethyl 4-(3,3-dimethyl-2-(5-methyl-3-(2,4,5-trifluorophenyl)-4,5,6,7-tetrahydro-1H-pyrazolo[4,3-c]pyridine-1-carboxamido)butanoyl)piperazine-1-carboxylate]
- EC50 [1, 4]: > 1 µM
- EC50 [2]: < 1 µM

Structure (SMILES): CN1CCc2c(c(-c3ccc(F)c(F)c3)nn2C(=O)N[C@@]23C[C@@H]4C[C@@H](C[C@@](O)(C4)C2)C3)C1 [Compound 55]
- EC50 [1, 3]: < 1 µM
- EC50 [2]: < 1 µM

Structure (SMILES): CNC(=O)[C@@H](NC(=O)n1nc(-c2cc(F)c(F)cc2F)c2c1CCNC2)C(C)(C)C [Compound 84, (S)—N-(3,3-dimethyl-1-(methylamino)-1-oxobutan-2-yl)-3-(2,4,5-trifluorophenyl)-4,5,6,7-tetrahydro-1H-pyrazolo[4,3-c]pyridine-1-carboxamide]
- EC50 [1, 3]: < 1 µM
- EC50 [2]: < 1 µM

Structure (SMILES): CN1CCc2c(c(-c3ccc(F)c(F)c3)nn2C(=O)NC(C)(C)C)C1 [Compound 46, N-tert-butyl-3-(3,4-difluorophenyl)-5-methyl-4,5,6,7-tetrahydro-1H-pyrazolo[4,3-c]pyridine-1-carboxamide]
- EC50 [1, 4]: > 1 µM
- EC50 [2]: < 1 µM

Structure (SMILES): CCN1CCc2c(c(-c3cc(F)ccc3F)nn2C(=O)N[C@H](C(=O)NC)C(C)(C)C)C1 [Compound 65, (S)-3-(2,5-difluorophenyl)-N-(3,3-dimethyl-1-(methylamino)-1-oxobutan-2-yl)-5-ethyl-4,5,6,7-tetrahydro-1H-pyrazolo[4,3-c]pyridine-1-carboxamide]
- EC50 [1, 3]: < 1 µM
- EC50 [2]: < 1 µM

Structure (SMILES): CNC(=O)[C@@H](NC(=O)n1nc(-c2ccc(C(F)(F)F)cc2F)c2c1CCN(C)C2)C(C)(C)C [Compound 43, (S)—N-(3,3-dimethyl-1-(methylamino)-1-oxobutan-2-yl)-3-(2-fluoro-4-(trifluoromethyl)phenyl)-5-methyl-4,5,6,7-tetrahydro-1H-pyrazolo[4,3-c]pyridine-1-carboxamide]
- EC50 [1, 4]: > 1 µM
- EC50 [2]: < 1 µM

Structure (SMILES): CNC(=O)[C@@H](NC(=O)n1nc(-c2ccc(F)c(F)c2)c2c1CN(C)CC2)C(C)(C)C [Compound 61, (S)-3-(3,4-difluorophenyl)-N-(3,3-dimethyl-1-(methylamino)-1-oxobutan-2-yl)-6-methyl-4,5,6,7-tetrahydro-1H-pyrazolo[3,4-c]pyridine-1-carboxamide]
- EC50 [1, 3]: < 1 µM
- EC50 [2]: < 1 µM

Structure (SMILES): CNC(=O)[C@@H]1CCCN1C(=O)[C@@H](NC(=O)n1nc(-c2cc(F)c(F)cc2F)c2c1CCN(C)C2)C(C)(C)C [Compound 76, N—((S)-3,3-dimethyl-1-((S)-2-(methyl-carbamoyl)pyrrolidin-1-yl)-1-oxobutan-2-yl)-5-methyl-3-(2,4,5-trifluorophenyl)-4,5,6,7-tetrahydro-1H-pyrazolo[4,3-c]pyridine-1-carboxamide]
- EC50 [1, 4]: > 1 µM
- EC50 [2]: < 1 µM

Structure (SMILES): CN1CCN(C(=O)[C@@H](NC(=O)n2nc(-c3cc(F)c(F)cc3F)c3c2CCOC3)C(C)(C)C)CC1 [Compound 32, (S)—N-(3,3-dimethyl-1-(4-methylpiperazin-1-yl)-1-oxobutan-2-yl)-3-(2,4,5-trifluorophenyl)-6,7-dihydropyrano[4,3-c]pyrazole-1(4H)-carboxamide]
- EC50 [1, 3]: < 1 µM
- EC50 [2]: < 1 µM

Structure (SMILES): CC(C)(C)[C@H](NC(=O)n1nc(-c2cc(F)c(F)cc2F)c2c1CCOC2)C(=O)N1CC[C@H](O)C1 [Compound 31, N—((S)-1-((S)-3-hydroxypyrrolidin-1-yl)-3,3-dimethyl-1-oxobutan-2-yl)-3-(2,4,5-trifluorophenyl)-6,7-dihydropyrano[4,3-c]pyrazole-1(4H)-carboxamide]
- EC50 [1, 4]: < 1 µM
- EC50 [2]: < 1 µM

Structure (SMILES): CN1CCc2c(c(-c3ccc(F)c(F)c3)nn2C(=O)N[C@H](CO)C(C)(C)C)C1 [Compound 48, (S)-3-(3,4-difluorophenyl)-N-(1-hydroxy-3,3-dimethylbutan-2-yl)-5-methyl-4,5,6,7-tetrahydro-1H-pyrazolo[4,3-c]pyridine-1-carboxamide]
- EC50 [1, 3]: < 1 µM
- EC50 [2]: > 1 µM

Structure (SMILES): CC(C)(C)[C@@H](CO)NC(=O)n1nc(-c2cc(F)c(F)cc2F)c2c1CCOC2 [Compound 33, (S)—N-(1-hydroxy-3,3-dimethylbutan-2-yl)-3-(2,4,5-trifluorophenyl)-6,7-dihydropyrano[4,3-c]pyrazole-1(4H)-carboxamide]
- EC50 [1, 3]: < 1 µM
- EC50 [2]: < 1 µM

Structure (SMILES): CNC(=O)[C@@H](NC(=O)n1nc(-c2cc(C(F)(F)F)ccc2F)c2c1CCNC2)C(C)(C)C [Compound 58, (S)—N-(3,3-dimethyl-1-(methylamino)-1-oxobutan-2-yl)-3-(2-fluoro-5-(trifluoromethyl)phenyl)-4,5,6,7-tetrahydro-1H-pyrazolo[4,3-c]pyridine-1-carboxamide]
- EC50 [1, 4]: > 1 µM
- EC50 [2]: < 1 µM

Structure (SMILES): CCOC(=O)CN1CCc2c(c(-c3cc(F)c(F)cc3F)nn2C(=O)N[C@H](C(=O)NC)C(C)(C)C)C1 [Compound 83, (S)-ethyl 2-(1-(3,3-dimethyl-1-(methylamino)-1-oxobutan-2-ylcarbamoyl)-3-(2,4,5-trifluorophenyl)-6,7-dihydro-1H-pyrazolo[4,3-c]pyridin-5(4H)-yl)acetate]
- EC50 [1, 4]: > 1 µM
- EC50 [2]: < 1 µM

Structure (SMILES): CN1CCc2c(c(-c3cc(F)c(F)cc3F)nn2C(=O)N[C@H](C(=O)N2CCC[C@@H]2C(N)=O)C(C)(C)C)C1 [Compound 75, N—((S)-1-((R)-2-carbamoylpyrrolidin-1-yl)-3,3-dimethyl-1-oxobutan-2-yl)-5-methyl-3-(2,4,5-trifluorophenyl)-4,5,6,7-tetrahydro-1H-pyrazolo[4,3-c]pyridine-1-carboxamide]
- EC50 [1, 4]: > 1 µM
- EC50 [2]: < 1 µM

Structure (SMILES): CN1CCc2c(c(-c3cc(F)c(F)cc3F)nn2C(=O)N[C@H](C(=O)NCCCO)C(C)(C)C)C1 [Compound 80, (S)—N-(1-(3-hydroxypropylamino)-3,3-dimethyl-1-oxobutan-2-yl)-5-methyl-3-(2,4,5-trifluorophenyl)-4,5,6,7-tetrahydro-1H-pyrazolo[4,3-c]pyridine-1-carboxamide]
- EC50 [1, 4]: > 1 µM
- EC50 [2]: < 1 µM

Structure (SMILES): CN1CCc2c(c(-c3cc(F)c(F)cc3F)nn2C(=O)N[C@H](C(=O)O)C(C)(C)C)C1 [Compound 71, (S)-3,3-dimethyl-2-(5-methyl-3-(2,4,5-trifluorophenyl)-4,5,6,7-tetrahydro-1H-pyrazolo[4,3-c]pyridine-1-carboxamido)butanoic acid]
- EC50 [1, 4]: > 30 µM
- EC50 [2]: > 30 µM

Structure (SMILES): CN1CCc2c(c(-c3ccc(F)c(F)c3)nn2C(=O)N2CCC(O)CC2)C1 [Compound 45, (3-(3,4-difluorophenyl)-5-methyl-4,5,6,7-tetrahydro-1H-pyrazolo[4,3-c]pyridin-1-yl)(4-hydroxypiperidin-1-yl)methanone]
- EC50 [1, 4]: > 1 µM
- EC50 [2]: > 1 µM

Structure (SMILES): COC(=O)[C@@H](NC(=O)n1nc(-c2cc(F)c(F)cc2F)c2c1CCOC2)C(C)(C)C [Compound 34, (S)-methyl 3,3-dimethyl-2-(3-(2,4,5-trifluorophenyl)-1,4,6,7-tetrahydropyrano[4,3-c]pyrazole-1-carboxamido)butanoate]
- EC50 [1, 3]: < 1 µM
- EC50 [2]: < 1 µM

Structure (SMILES): CN1CCc2c(c(-c3cc(F)c(F)cc3F)nn2C(=O)N[C@H](C(=O)N2CCC[C@H](O)C2)C(C)(C)C)C1 [Compound 78]
- EC50 [1, 4]: > 1 µM
- EC50 [2]: < 1 µM
